Laboratory results from patent US10105323B2, “Pharmaceutical dosage form for immediate release of an indolinone derivative” (Boehringer Ingelheim International GmbH, priority 2008, dated 2018).
Read-outs that look alike come from different tables or passages of the source.

Key:
[1] = human, in vivo
[2] = Phase 2 monotherapy trials in NSCLC or HRPC patients, pre-dose plasma concentrations; format: in vivo, human; settings: 150 and 250 mg twice daily, soft gelatin capsule
[3] = Phase I trials in cancer patients, dose proportionality of plasma exposure; format: in vivo, human; settings: single dose and steady state, qd and bid dosing, visual inspection
Source text: However, in three Phase I trials in cancer patients with various advanced solid tumors there was no sign for a deviation from a dose proportional increase in AUC and Cmax of the active substance observed through visual inspection neither after single dose nor at steady state for once and twice daily dosing (FIGS. 9 and 10). […] There was no deviation from dose-proportionality observed for drug plasma concentrations measured before drug administration at steady state (Cpre,ss) in cancer patients in various clinical trials, found through visual inspection.

[4] = Stress, long-term and accelerated stability studies of soft gelatin capsule systems; format: physicochemical; settings: 1 month at 70° C., long-term (3 years), accelerated (6 months)
Source text: An advantage of such soft gelatin capsule containing a lipid suspension is that the water uptake into the formulation is very unlikely. The dosage form is divided into three different compartments, namely (a) a hydrophilic capsule shell and (b) the hydrophobic carrier system in which (c) the slightly hygroscopic powder of active substance is suspended. Due to ambient moisture the content of water may vary within these different compartments. It will migrate by diffusion until an equilibrium state is reached. The water content may affect different properties of the drug product, such as the chemical stability of the active substance (predominantly via hydrolysis), the dissolution of the active substance, or the elasticity of the capsule shell. The water uptake in the present system is primarily in the capsule shell. This can be shown by water vapour sorption experiments as well as by the correlation of the mass gain with the softening of the capsule (shown in FIG. 1). […] This is confirmed by the stress stability studies of, for example, 1 month at 70° C., and by long-term (3 years) and accelerated (6 months) stability study results for the systems in accordance with the present invention.

Compound: COC(=O)c1ccc2c(c1)NC(=O)/C2=C(\Nc1ccc(N(C)C(=O)CN2CCN(C)CC2)cc1)c1ccccc1 [active substance, 3-Z-[1-(4-(N-((4-methyl-piperazin-1-yl)-methylcarbonyl)-N-methyl-amino)-anilino)-1-phenyl-methylene]-6-methoxycarbonyl-2-indolinone-monoethanesulphonate]
- time to reach maximum plasma concentration (median value) [1]: 2 h
- time to reach maximum plasma concentration (range) [1]: 0.75 to 6 h
- plasma concentration of the active substance at maximum (gMean value) ([1]; 150 mg): about 9 ng/mL
- plasma concentration as % of the maximum plasma concentration ([1]; 24 h): about 15%
- plasma concentration as % of the maximum plasma concentration ([1]; 48 h): 7-8%
- pre-dose plasma concentrations at steady state versus dose [2]: no obvious deviation from a dose proportional increase
- gMean AUCτ,ss versus dose [3]: increased in a dose-proportional manner
- gMean Cmax,ss versus dose [3]: increased in a dose-proportional manner
- effect of water uptake on chemical stability [4]: not affect the chemical stability
